Like-named read-outs stand apart in the source and are kept apart here.
Target: cellular cereblon (CRBN) (Homo sapiens, UniProt Q96SW2)
Assay: NanoBRET Target Engagement Assay, competition with pomalidomide tracer in 293T.116 cells
Settings: for NanoBRET TE 293T.116 CRBN 6 hours IP nM / NanoBRET TE 293T.116 CRBN 24 hours IP nM / IC50 / NanoBRET TE 293T.116 CRBN 2 hours IP nM: 293T.116 cells
[1] = NanoBRET TE 293T.116 CRBN 6 hours IC50 nM, 6 hours incubation
[2] = NanoBRET TE 293T.116 CRBN 24 hours IC50 nM, 24 hours incubation
[3] = read-out: NanoBRET TE 293T.116 CRBN 6 hours Emax
[4] = read-out: NanoBRET TE 293T.116 CRBN 24 hours Emax
[5] = NanoBRET TE 293T.116 CRBN 2 hours IC50 nM, 2 hours incubation
[6] = read-out: NanoBRET TE 293T.116 CRBN 2 hours Emax

| SMILES | NanoBRET TE 293T.116 CRBN 6 hours IP nM (6 hours incubation) | NanoBRET TE 293T.116 CRBN 24 hours IP nM (24 hours incubation) | IC50 [1] [nM] | IC50 [2] [nM] | Emax [3] [%] | Emax [4] [%] | NanoBRET TE 293T.116 CRBN 2 hours IP nM (2 hours incubation) | IC50 [5] [nM] | Emax [6] [%] |
| --- | --- | --- | --- | --- | --- | --- | --- | --- | --- |
| O=C1CCC(Oc2ccc(S(=O)(=O)F)cn2)C(=O)N1 (stereo not drawn) [Compound A-9, 6-((2,6-dioxopiperidin-3-yl)oxy)pyridine-3-sulfonyl fluoride] | ** (<10 μM and >1 μM is **) | * (>=10 μM is *) | 1000 to 10000 | > 10000 | < 50 | 50 to 80 | – | – | – |
| Cn1nc(N2CCC(=O)NC2=O)c2cccc(S(=O)(=O)F)c21 [Compound A-10, 3-(2,4-dioxotetrahydropyrimidin-1(2H)-yl)-1-methyl-1H-indazole-7-sulfonyl fluoride] | *** (<= 1 μM is ***) | *** (<= 1 μM is ***) | < 1000 | < 1000 | < 50 | < 50 | *** (<= 1 μM is ***) | < 1000 | < 50 |
| CN(c1cccc(S(=O)(=O)F)c1)C1CCC(=O)NC1=O (stereo not drawn) [Compound A-11, 3-((2,6-dioxopiperidin-3-yl)(methyl)amino)benzenesulfonyl fluoride] | *** (<= 1 μM is ***) | *** (<= 1 μM is ***) | < 1000 | < 1000 | < 50 | < 50 | *** (<= 1 μM is ***) | < 1000 | < 50 |
| O=C1CCC(c2ccc(S(=O)(=O)F)cc2)C(=O)N1 (stereo not drawn) [Compound A-12, 4-(2,6-dioxopiperidin-3-yl)benzenesulfonyl fluoride] | *** (<= 1 μM is ***) | *** (<= 1 μM is ***) | < 1000 | 1000 to 10000 | < 50 | < 50 | *** (<= 1 μM is ***) | < 1000 | < 50 |
| O=C1CCN(c2ccc(S(=O)(=O)F)cc2)C(=O)N1 [Compound A-14, 4-(2,4-dioxotetrahydropyrimidin-1(2H)-yl)benzenesulfonyl fluoride] | ** (<10 μM and >1 μM is **) | ** (<10 μM and >1 μM is **) | 1000 to 10000 | > 10000 | < 50 | 50 to 80 | ** (<10 μM and >1 μM is **) | 1000 to 10000 | < 50 |
| O=C1CCN(c2ccc(OS(=O)(=O)F)cc2)C(=O)N1 [Compound A-15, 4-(2,4-dioxotetrahydropyrimidin-1(2H)-yl)phenyl sulfurofluoridate] | ** (<10 μM and >1 μM is **) | ** (<10 μM and >1 μM is **) | > 10000 | 1000 to 10000 | 50 to 80 | < 50 | ** (<10 μM and >1 μM is **) | > 10000 | 50 to 80 |
| COc1ccc(OC2CCC(=O)NC2=O)cc1S(=O)(=O)F (stereo not drawn) [Compound A-16, 5-[(2,6-dioxo-3-piperidyl)oxy]-2-methoxy-benzenesulfonyl fluoride] | *** (<= 1 μM is ***) | *** (<= 1 μM is ***) | < 1000 | < 1000 | < 50 | < 50 | *** (<= 1 μM is ***) | < 1000 | < 50 |
| CN(c1cccc(OS(=O)(=O)F)c1)C1CCC(=O)NC1=O (stereo not drawn) [Compound A-18, 3-((2,6-dioxopiperidin-3-yl)(methyl)amino)phenyl sulfurofluoridate] | * (>=10 μM is *) | ** (<10 μM and >1 μM is **) | 1000 to 10000 | 1000 to 10000 | < 50 | < 50 | ** (<10 μM and >1 μM is **) | 1000 to 10000 | < 50 |
| Cc1ccc(OC2CCC(=O)NC2=O)cc1OS(=O)(=O)F (stereo not drawn) [Compound A-19, 5-((2,6-dioxopiperidin-3-yl)oxy)-2-methylphenyl sulfurofluoridate] | ** (<10 μM and >1 μM is **) | ** (<10 μM and >1 μM is **) | 1000 to 10000 | 1000 to 10000 | < 50 | < 50 | ** (<10 μM and >1 μM is **) | 1000 to 10000 | < 50 |
| Cc1cc(OC2CCC(=O)NC2=O)cc(OS(=O)(=O)F)c1 (stereo not drawn) [Compound A-20, 3-((2,6-dioxopiperidin-3-yl)oxy)-5-methylphenyl sulfurofluoridate] | *** (<= 1 μM is ***) | *** (<= 1 μM is ***) | < 1000 | 1000 to 10000 | < 50 | < 50 | – | – | – |
| COc1cc(OC2CCC(=O)NC2=O)cc(OS(=O)(=O)F)c1 (stereo not drawn) [Compound A-21, 3-(3-fluorosulfonyloxy-5-methoxy-phenoxy)-2,6-dioxo-piperidine] | *** (<= 1 μM is ***) | ** (<10 μM and >1 μM is **) | < 1000 | 1000 to 10000 | < 50 | < 50 | – | – | – |
| O=C1CCC(c2cccc(OS(=O)(=O)F)c2)C(=O)N1 (stereo not drawn) [Compound A-23, 3-(2,6-dioxopiperidin-3-yl)phenyl sulfurofluoridate] | ** (<10 μM and >1 μM is **) | ** (<10 μM and >1 μM is **) | 1000 to 10000 | 1000 to 10000 | < 50 | < 50 | – | – | – |
| O=C1CCC(c2ccc(OS(=O)(=O)F)cc2)C(=O)N1 (stereo not drawn) [Compound A-25, 4-(2,6-dioxopiperidin-3-yl)phenyl sulfurofluoridate] | *** (<= 1 μM is ***) | *** (<= 1 μM is ***) | < 1000 | < 1000 | < 50 | < 50 | – | – | – |
| COc1ccc(OC2CCC(=O)NC2=O)cc1OS(=O)(=O)F (stereo not drawn) [Compound A-27, 5-((2,6-dioxopiperidin-3-yl)oxy)-2-methoxyphenyl sulfurofluoridate] | ** (<10 μM and >1 μM is **) | ** (<10 μM and >1 μM is **) | 1000 to 10000 | > 10000 | < 50 | 50 to 80 | ** (<10 μM and >1 μM is **) | 1000 to 10000 | < 50 |
| O=C1CCC(n2c(=O)oc3c(S(=O)(=O)F)cccc32)C(=O)N1 (stereo not drawn) [Compound A-29, 3-(2,6-dioxopiperidin-3-yl)-2-oxo-2,3-dihydrobenzo[d]oxazole-7-sulfonyl fluoride] | *** (<= 1 μM is ***) | ** (<10 μM and >1 μM is **) | < 1000 | 1000 to 10000 | < 50 | < 50 | – | – | – |
| Cn1nc(N2CCC(=O)NC2=O)c2cccc(OS(=O)(=O)F)c21 [Compound A-30, 3-(2,4-dioxotetrahydropyrimidin-1(2H)-yl)-1-methyl-1H-indazol-7-yl sulfurofluoridate] | *** (<= 1 μM is ***) | ** (<10 μM and >1 μM is **) | < 1000 | 1000 to 10000 | < 50 | < 50 | ** (<10 μM and >1 μM is **) | 1000 to 10000 | < 50 |

— patent publication US20260274856A1, “COVALENT CEREBLON LIGANDS” (C4 THERAPEUTICS, INC., priority 2023, published 2026)
